Here are results for eight compounds from PMC8284440, “Toward New Transmission-Blocking Combination Therapies: Pharmacokinetics of 10-Amino-Artemisinins and 11-Aza-Artemisinin and Comparison with Dihydroartemisinin and Artemether” (Antimicrobial Agents and Chemotherapy, 2021).

Values after ≈ are worked out from the molar mass of the structure shown. Values joined by “and” are separate entries in the source; they are usually repeats but may differ in a detail not shown here. Equal values may be shown once. Read-outs that look alike come from different tables or passages of the source. Some results are limits rather than exact numbers.

What is called IC50 is the point on the concentration scale where inhibition reaches its midpoint. The term EC50 denotes the concentration at which the effect is half-maximal. Broadly, the aqueous solubility is how much of the substance goes into solution per volume.

Data set [1] is described as follows: Plasma protein binding (ultracentrifugation). It counts as in vitro ADME. The note with it: pooled plasma, human plasma, read-out: Plasma protein binding fu. As for the experimental part:
(iii) Plasma protein binding. Plasma protein binding was measured using an ultracentrifugation method. The assay was performed using a 96-well microtiter plate with pooled human plasma spiked with the test compound (10 μM). […] This served as the total concentration sample. After preincubation at 37°C for 1 h, duplicate aliquots of the spiked plasma were transferred to ultracentrifugation tubes and ultracentrifuged for 4 h (216,937 × g, 37°C, Beckman Optima L-80XP). […] Sample extraction. […] LC-MS/MS analysis.

The next data set deals with P. falciparum 7G8. Details: method as in ref 5 (supplement; main text 63). The note with it: CQ resistant; ref 5 (supplement; main text 63); read-out: Antimalarial activities IC50 7G8; cited from earlier work.
For the next data set, the system named is P. falciparum TM91-C235. On the set-up: method as in ref 5 (supplement; main text 63). The note with it: CQ and mefloquine resistant; ref 5 (supplement; main text 63); read-out: Antimalarial activities IC50 TM91-C235; cited from earlier work.
A short description of data set [2]: Metabolic stability in mouse liver microsomes. It counts as in vitro ADME. Details: half-life / CLint scaled: dose or concentration left out as unconfirmed. The note with it: for CLint scaled: calculated, read-out: Intrinsic liver clearance rate CLint Mouse; for half-life: read-out: Microsomal half-life t1/2 Mouse. As for the experimental part: (ii) Metabolic stability in liver microsomes. The metabolic stability assay was performed in duplicate using 96-deepwell plates. Each compound (0.4 mM) was incubated individually in mouse, rat, and pooled human liver microsomes (0.4 mg/ml) at 37°C in the presence and absence of the cofactor NADPH (1 mM). An aliquot was taken at 0, 5, 10, 30, and 60 min, and the reaction was quenched by adding 300 μl of ice-cold acetonitrile containing the internal standard carbamazepine (0.0236 μg/ml) ([88]). The test compounds in the supernatant were analyzed by means of LC-MS/MS as described in “Sample analysis” below. The normalized data for each sample were used to calculate the in vitro half-life, intrinsic clearance rate, and hepatic extraction ratio from the results of this assay using the following equations ([88]).Equation 1. Normalized area. (1) Normalized area=(Peak area of sample at time point/Peak area of internal standard) Equation 2. Percent parent remaining. (2) % Parent=Normalized peak area of sample at time point/Normalized peak area of sample at t=0×100 Equation 3. Calculated t1/2. (3) t1/2=−0.693/λ where λ is the slope of the ln (% parent remaining) versus time curve of the compound.Equation 4. CLint. (4) CLint=[0.693/t1/2(min)]×[Volume of incubation (μl)/Microsomal protein (μg)] Equation 5. Hepatic extraction ratio. (5) EH=fu×CLint/QH + fu×CLint
Sample extraction. […] The organic layer was then transferred and evaporated under a gentle stream of nitrogen at room temperature for 30 min. The dried samples were reconstituted in mobile phase, and a 5 μl sample was injected for LC-MS/MS analysis. The only exception was the arylurea 10, for which no liquid-liquid extraction was conducted; instead, the 200 μl acetonitrile solution was evaporated under a gentle stream of nitrogen at room temperature. The dried sample was reconstituted in the mobile phase, and a 5 μl sample was injected for LC-MS/MS analysis. The plasma samples for each compound from the in vivo studies were extracted by mixing 350 μl ethyl acetate with 15 μl of plasma sample and 35 μl of universal buffer containing internal standard at pH 8. The samples were vortexed for 1 min and centrifuged for 5 min, and the organic layer was then transferred and evaporated under a gentle stream of nitrogen at room temperature for 30 min. The dried samples were each reconstituted in the mobile phase, and a 5 μl sample was injected for LC-MS/MS analysis.
LC-MS/MS analysis. For all the artemisinins except the arylurea 10, gradient chromatography was performed on a Phenomenex (Torrance, CA, USA) Luna PFP(2) analytical column (100 Å, 5 μm, 2 by 50 mm) and an AB Sciex API 5500 mass spectrometer which was operated at unit resolution in the multiple reaction monitoring (MRM) mode. The HPLC method used was a gradient method with 5 mM ammonium acetate and 0.1% acetic acid in water as the aqueous phase and a mixture of acetonitrile and methanol (1:1 vol/vol) containing 5% of the aqueous phase as the organic phase ([89]). The arylurea 10 was analyzed using a Phenomenex Gemini NX-C18 (5 μm, 2.1 mm by 50 mm) column with an AB Sciex 3200 QTRAP mass spectrometer operated at unit resolution in the MRM mode. The HPLC method used was a gradient method with 5 mM ammonium acetate and 0.1% acetic acid in water as the aqueous phase and a mixture of acetonitrile and methanol (1:1 vol/vol). The transitions of the molecular ions were monitored, as listed in Table S8 in the supporting information. The calibration range was between 0.002 μg/ml and 6.250 μg/ml. Data acquisition and evaluation were performed using Analyst 1.6.2 software (Applied Biosystems, Foster City, CA, USA). The formation of the putative metabolite DHA from the amino-artemisinins and the metabolite M1 of artemisone were evaluated in these mice PK studies; the MRM transitions of DHA and M1 (Table S8) were thus included in the LC-MS/MS assays.

The next data set has as its system P. falciparum W2. Details: method as in ref 5 (supplement; main text 63). Particulars: CQ resistant; ref 5 (supplement; main text 63); read-out: Antimalarial activities IC50 W2; cited from earlier work.
A further data set relates to P. falciparum TM93-C1088. Details: method as in ref 5 (supplement; main text 63). Particulars: atovaquone and CQ resistant; ref 5 (supplement; main text 63); read-out: Antimalarial activities IC50 TM93-C1088; cited from earlier work.
The subject of the next data set is P. falciparum D6. On the set-up: method as in ref 5 (supplement; main text 63). Particulars: CQ sensitive; ref 5 (supplement; main text 63); read-out: Antimalarial activities IC50 D6; cited from earlier work.
The subject of another data set is HepG2. Particulars: read-out: Cytotoxicity EC50 HepG2; ref 2 (supplement; main text 48); cited from earlier work.
Data set [3] concerns P. falciparum K1. On the set-up: method as in ref 1 and 2 (supplement; main text 47, 48). The note with it: Table S1, ± SEM; ref 1 and 2 (supplement; main text 47, 48); cited from earlier work.
The conditions of data set [4]: cited from earlier work.
Data set [5] has as its system Chinese hamster ovary (CHO) cells. The note with it: read-out: Cytotoxicity EC50 CHO; MTT, ±SD; ref 1 and 2 (supplement; main text 47, 48); cited from earlier work.
Data set [6] relates to P. falciparum K1. Details: method as in ref 4 (supplement; main text 62). The note with it: Table S2, ± SEM; ref 4 (supplement; main text 62); read-out: Antimalarial activities IC50 K1; cited from earlier work.

Regarding `C[C@H]1[C@H](N2C=CS(=O)(=O)CC2)O[C@@H]2O[C@@]3(C)CC[C@H]4[C@H](C)CC[C@@H]1[C@@]24OO3` [M1 12], the fraction unbound at 4 h, 10 µM in [1] came to 0.25. For the same compound, the half-inhibitory concentration (IC50) in the data set with P. falciparum 7G8 was 2.6 ± 0.8 nM; in the data set with P. falciparum TM91-C235, 5 ± 0.6 nM; in the data set with P. falciparum W2, 6.6 ± 0.4 nM; in the data set with P. falciparum TM93-C1088 it was 2.5 ± 0.4 nM; in the data set on P. falciparum D6 it was 4.7 ± 0.2 nM. In data set [2], the “Hepatic extraction ratio EH Mouse” value worked out at 0.3. The CLint scaled in [2] is 37.4 mL/min/kg. In data set [2], the half-life was more than 150 min.
For `C[C@H]1[C@H](N2CCSCC2)O[C@@H]2O[C@@]3(C)CC[C@H]4[C@H](C)CC[C@@H]1[C@@]24OO3` [Artemiside 5, artemiside], in [1], the fraction unbound at 4 h, 10 µM was found to be 0.23. Moreover, in data set [2], the “Hepatic extraction ratio EH Mouse” value came out at 0.9, the CLint scaled is 551 mL/min/kg and the half-life worked out at 12.4 min. Moreover, the concentration giving a half-maximal response (EC50) with HepG2 is more than 25000 nM. For the same compound, the 50% inhibitory concentration (IC50) in the data set on P. falciparum K1 [3] was 1.6 ± 0.4 nM. Besides, in data set [4], the “aqueous solubility at pH 7.2” value was < 2 mg/liter and < 5.4 μM. Also, the EC50 in data set [5] is more than 271000 nM.
In the case of `C[C@H]1[C@H](N2CCS(=O)(=O)CC2)O[C@@H]2O[C@@]3(C)CC[C@H]4[C@H](C)CC[C@@H]1[C@@]24OO3` [Artemisone 6, artemisone], the fraction unbound at 4 h, 10 µM in data set [1] was determined as 0.14. For the same compound, the IC50 is 0.8 ± 0.1 nM with P. falciparum 7G8; 1.1 ± 0.5 nM with P. falciparum TM91-C235; 1.3 ± 0.5 nM in the data set with P. falciparum W2; 0.7 ± 0.2 nM in the data set on P. falciparum TM93-C1088; 1.01 ± 0.19 nM with P. falciparum K1 [3]; 1 ± 0.4 nM in the data set with P. falciparum D6. Also, the “Hepatic extraction ratio EH Mouse” value in data set [2] is listed as 0.9. For the same compound, in data set [2], the CLint scaled is 805 mL/min/kg. For the same compound, in data set [2], the half-life was less than 10 min. The half-maximal effective concentration (EC50) was more than 50000 nM in the data set with HepG2 and more than 249000 nM in data set [5]. For the same compound, the “aqueous solubility at pH 7.2” value in data set [4] was 89 mg/liter and 221.6 μM.
As for `CO[C@H]1O[C@@H]2O[C@@]3(C)CC[C@H]4[C@H](C)CC[C@@H]([C@H]1C)[C@@]24OO3` [Artemether 3, artemether], the fraction unbound at 4 h, 10 µM in data set [1] came to 0.14. For the same compound, in [2], the “Hepatic extraction ratio EH Mouse” value was 0.8, the CLint scaled is 393 mL/min/kg and the half-life turned out to be 17.4 min. Also, the aqueous solubility in [4] (25°C) is 12.1 µg/mL (≈ 40.6 µM). Moreover, in data set [4], the aqueous solubility was 300 µg/mL (≈ 1010 µM) and the aqueous solubility rating entry was “insoluble”. Further, in [4] (variously recorded), the aqueous solubility is less than 1000 µg/mL. Besides, in the data set with P. falciparum K1 [6], the IC50 was 2.64 ± 0.18 nM.
For `C[C@H]1[C@H](NS(N)(=O)=O)O[C@@H]2O[C@@]3(C)CC[C@H]4[C@H](C)CC[C@@H]1[C@@]24OO3` [Sulfamide 7], the fraction unbound at 4 h, 10 µM in data set [1] worked out at 0.17. In data set [2], the “Hepatic extraction ratio EH Mouse” value is given as 0.3, the CLint scaled was 41.3 mL/min/kg and the half-life was more than 150 min. Moreover, the IC50 with P. falciparum K1 [3] is 1.78 ± 0.26 nM. Besides, the “aqueous solubility at pH 7.2” value in data set [4] is 294 mg/liter and 811 μM. Moreover, the 50% effective concentration (EC50) in data set [5] was 56000 ± 4600 nM.
For `C[C@@H]1CC[C@H]2[C@@H](C)C(=O)N[C@@H]3O[C@@]4(C)CC[C@@H]1[C@]32OO4` [11-Aza-artemisinin 11, 11-aza-artemisinin], the fraction unbound at 4 h, 10 µM in [1] was 0.13. For the same compound, in [2], the “Hepatic extraction ratio EH Mouse” value is listed as 0.3, the CLint scaled was 36.4 mL/min/kg and the half-life is more than 150 min. In addition, the IC50 with P. falciparum K1 [6] was 9.44 ± 2.93 nM.
Turning to `C[C@H]1[C@@H](O)O[C@@H]2O[C@@]3(C)CC[C@H]4[C@H](C)CC[C@@H]1[C@@]24OO3` [DHA 2, dihydroartemisinin], the IC50 with P. falciparum 7G8 is 1.3 ± 0.2 nM; in the data set with P. falciparum TM91-C235 it was 2.3 ± 0.7 nM; with P. falciparum W2, 2.2 ± 0.8 nM; in the data set with P. falciparum TM93-C1088 it was 1.4 ± 0.4 nM; in the data set with P. falciparum K1 [3] it was 1.51 ± 0.33 nM; in the data set with P. falciparum K1 [6] it was 0.8 ± 0.5 nM. Further, the 50% inhibitory concentration (IC50) in the data set on P. falciparum D6 was 1.7 ± 0.4 nM. Also, the “Hepatic extraction ratio EH Mouse” value in [2] was 0.4. Besides, the CLint scaled in data set [2] is 50.2 mL/min/kg. The half-life in data set [2] was determined as 136 min. The 50% effective concentration (EC50) in data set [5] is 25200 nM.
As for `C[C@H]1[C@H](N2CCN(C(=O)Nc3ccc(F)cc3)CC2)O[C@@H]2O[C@@]3(C)CC[C@H]4[C@H](C)CC[C@@H]1[C@@]24OO3` [Arylurea 10], the fraction unbound at 4 h, 10 µM in data set [1] turned out to be 0.02. Further, in data set [2], the “Hepatic extraction ratio EH Mouse” value was 0.6, the CLint scaled was 2480 mL/min/kg and the half-life was less than 10 min. For the same compound, the EC50 with HepG2 was 5160 nM. The IC50 in the data set with P. falciparum K1 [3] was 0.85 ± 0.1 nM. For the same compound, the EC50 in data set [5] was 204000 nM.
